From patent US20260327211A1, “MODULATORS OF A POTASSIUM CHANNEL AND OF TRPV1 CHANNEL AND USES THEREOF” (Bsense Bio Therapeutics Ltd., priority 2023, published 2026)

Key:
[1] = test system: hTRPV1; test: hTRPV1 dual activity electrophysiology, CHO cells co-expressing hKv7.2/3 and hTRPV1; type: cell-based; settings: rat DRG and dual CHO
[2] = test system: Salmonella typhimurium (TA98, TA100, TA1535, TA1537) and Escherichia coli WP2uvrA (pKM101); test: Mini-Ames assay; type: cell-based; settings: 5 strains, with and without S9
Experimental: The Mini-Ames assay was performed according to the regulatory guidelines. In brief, 5 strains were selected for testing: Salmonella typhimurium (TA98, TA100, TA1535, TA1537) and Escherichia coli WP2uvrA (pKM101). A standard six-well culture plate with top agar containing 0.6% (w/v) agar and 0.5% (w/v) sodium chloride was supplemented with 0.5 mM D-biotin and 0.5 mM L-histidine for Salmonella typhimurium strains or 0.5 mM D-biotin and 0.5 mM L-tryptophan for Escherichia coli WP2uvrA (pKM101). […] Average number of revertants for each dose group condition was compared to negative control, and cytotoxicity and precipitates were recorded.

[3] = test system: HepG2 cells; test: HepG2 toxicity, ATPlite; type: cell-based, human; settings: up to limit of solubility
Experimental: Cell culture: HepG2 cell-line cells were cultured in EMEM (ATCC 30-2033) medium supplemented with 10% fetal bovine serum (Biological Industries) in a humidified 5% CO2 incubator at 37° C.
ATPlite™ 1step Kit: ATPlite™ 1step kit (PerkinElmer) was used in a 384-wells format to assess potential liver toxicity using HepG2 cells. This is an ATP detection system based on firefly luciferase luminescence for the quantitative evaluation of proliferation and cytotoxicity of cells. ATP is a marker for cell viability because it is present in all metabolically active cells and its concentration declines very rapidly when the cells undergo necrosis or apoptosis.
According to an optimization process done to achieve uniform and consistent screening condition of molecules, the following protocol was established: Cells were seeded in 384-well, black-walled, clear-bottomed, at a density of 4000 cells per well […] and incubated overnight in their normal growth medium. On day two (48 hours before viability measurement), the tested compounds and the positive control were applied to the wells according to the plate design. […] 48 hours later, reconstituted lyophilized substrate solution was added to each well and the sealed 384-well microplate was mixed for 2 minutes at 1100 rpm in an orbital microplate and plates were incubated for 10 minutes in the dark at room temperature. Right after, luminescence was measured in the Tecan plate reader. To estimate the LD50 and LD25 values the data was fitted to sigmoidal regression using Prism-GraphPad. […]

SMILES | IC50 [1] | Cytotoxic effect in Ames strains [2] | Reversion rates [2] | HepG2 toxicity [3]
O=C(Cc1nccc(-n2cc(Cl)c3cc(Cl)cc(Cl)c32)n1)NC1COCC1O (stereo not shown) [Compound 760] | 0.1 to 0.23 nM | No significant cytotoxic effect | did not induce substantial dose-dependent increases in reversion rates | 
O=C(Cc1cncc(-n2cc(Cl)c3cc(Cl)cc(Cl)c32)c1)N[C@@H]1COC[C@H]1O [Compound 661] |  |  |  | no evidence of toxicity up to the compound's limit of solubility
